This note sets out measurements from ChEMBL document CHEMBL5625207, “RIPK2 inhibitors for disease therapy: Current status and perspectives” (Eur J Med Chem, 2023).

Each structure is given as a SMILES string. pIC50: −log10 of the molar value.

Broadly, the pIC50 is the negative decadic logarithm of the IC50, by convention in mol/L.

Assay [1] concerns the target T1, Receptor-interacting serine/threonine-protein kinase 2 (Homo sapiens, UniProt O43353). Description: Inhibition of RIPK2 (unknown origin).
Assay [2] concerns the target T1, Receptor-interacting serine/threonine-protein kinase 2. Put plainly: Inhibition of full length FLAG His-tagged RIPK2 (unknown origin) expressed in Baculovirus by fluorescence polarization assay. On the technique in general: Polarisation of emitted light reports the rotation of a fluorescent probe.
Assay [3] has the same target. Description: Inhibition of RIPK2 (unknown origin) expressed in Escherichia coli.
Assay [4] has the same target. Description: Inhibition of RIPK2 (unknown origin) using (CRRKSLVGTPYWMAPE) peptide as substrate pre-incubated for 60 mins followed by substrate addition and measured after 2 hrs by fluorescence polarization assay.
The target is the same in assay [5]. Description: Inhibition of RIPK2 (unknown origin) by ADP-Glo assay. In general terms: In ADP-Glo the light output rises with the ADP produced.
The target in assay [6] is von Hippel-Lindau disease tumor suppressor/Receptor-interacting serine/threonine-protein kinase 2 (Homo sapiens, UniProt O43353+P40337). Put plainly: Protac activity at VHL/RIPK2 in human THP-1 cells assessed as RIPK2 degradation measured after 16 hrs by Western blot analysis. Format: cell-based. On the technique in general: In western blotting, separated proteins are transferred to a membrane and probed.
Sequence of von Hippel-Lindau disease tumor suppressor/Receptor-interacting serine/threonine-protein kinase 2 (O43353 whole entry): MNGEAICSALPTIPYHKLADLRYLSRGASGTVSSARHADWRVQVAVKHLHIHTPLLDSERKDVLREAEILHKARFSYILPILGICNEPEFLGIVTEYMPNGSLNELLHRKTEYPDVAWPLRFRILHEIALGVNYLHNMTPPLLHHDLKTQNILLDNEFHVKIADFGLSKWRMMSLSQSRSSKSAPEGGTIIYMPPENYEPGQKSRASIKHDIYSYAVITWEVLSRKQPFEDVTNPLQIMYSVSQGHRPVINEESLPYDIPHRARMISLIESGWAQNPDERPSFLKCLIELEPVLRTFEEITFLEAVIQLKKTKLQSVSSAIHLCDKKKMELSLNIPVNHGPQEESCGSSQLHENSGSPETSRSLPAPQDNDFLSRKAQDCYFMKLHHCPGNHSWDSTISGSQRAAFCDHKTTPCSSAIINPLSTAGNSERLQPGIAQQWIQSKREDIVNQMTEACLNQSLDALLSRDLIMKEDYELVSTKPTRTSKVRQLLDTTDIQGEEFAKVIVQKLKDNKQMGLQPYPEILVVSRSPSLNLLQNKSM
Sequence of von Hippel-Lindau disease tumor suppressor/Receptor-interacting serine/threonine-protein kinase 2 (P40337 whole entry): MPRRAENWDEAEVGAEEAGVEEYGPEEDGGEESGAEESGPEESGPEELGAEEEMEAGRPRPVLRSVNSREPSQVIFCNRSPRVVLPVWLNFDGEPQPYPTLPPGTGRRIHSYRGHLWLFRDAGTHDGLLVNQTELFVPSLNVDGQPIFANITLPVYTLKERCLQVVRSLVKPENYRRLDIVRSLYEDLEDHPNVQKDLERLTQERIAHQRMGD

T1 sequence (O43353 whole entry): as the sequence (O43353 whole entry) above

With `Cc1ccc(-c2cn([C@H]3CC[C@@H](N)CC3)c3ncnc(N)c23)c(F)c1`, the negative logarithm of the IC50 (pIC50) in assay [1] and in assay [2] was 9.22 in each case.

Regarding `c1cc2cc(n1)NCCOCCNc1ccc3ncc-2n3n1`, the pIC50 in assay [2] and in assay [3] was 7.85 in each case.

As to `Cc1ccc(-c2nn(C(C)(C)CN(C)C)c3ncnc(N)c23)cc1`, the pIC50 is 8.00 in assay [2] and 6.00 in assay [4].

For the compound `c1cc(-c2ccc3ncnc(Nc4ccc5scnc5c4)c3c2)ccn1`, the pIC50 in assay [5] and in assay [2] was 8.29 throughout.

As for `Cc1ncsc1-c1ccc(CNC(=O)C2C[C@H](O)CN2C(=O)[C@@H](NC(=O)COCCOCCOCCOCCOc2cc3nccc(Nc4ccc5scnc5c4)c3cc2S(=O)(=O)C(C)(C)C)C(C)(C)C)cc1` (some centres undefined), in assay [6], the pIC50 was 8.70.
